The subject of assay [1] is splenocytes from BALB/c mice. The experiment in a line: In vitro proliferation assay of splenocytes (3H-thymidine uptake). Particulars: for mitogenic activity of rTcPA45 in cultures supplemented with substrate: 50 μg/ml rTcPA45, increasing amounts of L- or D-proline, 3 mM to 50 mM; for cell proliferation with substrate alone: 50 mM L- or D-proline alone; for mitogenic activity of rTcPA45 pre-incubated with inhibitor: 50 μg/ml rTcPA45 pre-incubated 10 min at 37° C. with 1 mM inhibitor; for 3H-thymidine uptake: after 48 h, ConA 10 μg/ml, LPS 5 μg/ml, 5×10^4 cells/well. It counts as cell-based, mouse. As to the method: Briefly, freshly recovered splenocytes from 8 week old male Balb/c mice seeded at a concentration of 5×10^4 cells/well were incubated for 24, 48 and 72 h in 5% FCS RPMI-1640 medium. A 16 h ^3H-thymidine pulse at 1 μCi/well was performed before harvesting. ^3H-Thymidine uptake was determined in a beta-plate liquid scintillation counter (LKB-Wallac). All points were done in triplicate and the corresponding standard deviation calculated. For comparison, ^3H-thymidine uptake after 48 h in the presence of ConA (10 μg/ml) and LPS (5 μg/ml) was 32000 c.p.m. and 3500 c.p.m., respectively. T-cell depletion was performed by incubating freshly recovered spleen cells for 30 min at 37° C. in the presence of anti-Thy 1.2 monoclonal antibody (Cedarlane) and rabbit complement (Cedarlane). In order to rule out a possible mitogenic effect due to LPS contamination in samples, proliferation assays were also performed on freshly recovered splenocytes from the LPS non-responder mouse strain C3H/Hej. Same levels of proliferation were verified. Balb/c mice were purchased from Charles River, France. C3H/Hej mice were maintained in our animal facilities.
In vitro proliferation is accomplished using freshly recovered splenocytes from BALB/c mice seeded at a density of 5×10^4 cells/well and incubated for 24, 48 and 72 h with increasing concentrations of total parasite supernatants or recombinant TcPa45 protein or other mitogen (0.07-200 μg/ml) with 0.5 μg/ml of the HPLC fractions, or with the conventionally used mitogens concanavalin A (10 μg/ml) and lipopolysaccharide (5 μg/ml) in 5% FCS in RPMI-1640 complete medium. T-cell depletion is accomplished by incubating freshly recovered spleen cells for 30 min. at 37° C. in the presence of monoclonal antibodies against Thy 1.2 and rabbit complement (Cedarlane, Le Perray en Yvelines, France). Analysis of proliferative activity of total splenocytes (5×10^4 cells/well) in the presence of 50 μg/ml enzymatically active rTcPA45 or other mitogen is also compared with the proliferation obtained using the same amounts of rTcPA45 protein or other mitogen lacking racemase activity (by heating for 10 min. at 30° C. or by long term storage at 4° C.). Inhibition of proliferation is obtained by adding to the splenocyte cultures 50 μg/ml rTcPA45 or other mitogen pre-incubated for 10 min. at 37° C. with 1 mM inhibitor, either specific (pyrrole-2-carboxylic acid) or nonspecific (iodoacetamide or iodoacetate). Competitive assays of proliferative activity by 50 μg/ml rTcPA45 or other mitogen are done by adding increasing concentrations of specific substrates i.e., proline racemase substrates (L- or D-proline) for the mitogen rTcPA45 ranging from 3 mM to 50 mM. Controls include the incubation of splenocytes (5×10^4 cells/well) with substrate alone, i.e., 50 mM L- or D-proline in RPMI medium alone for prline racemase. Cultures are collected after a 16-hour pulse or 1 μCi/well ^3H-thymidine uptake was determined in a beta-plate liquid scintillation counter (LKB-Wallac, Orsay, France). All data points are obtained in triplicate and the corresponding standard deviation is calculated.
5×10^5 naive spleen cells/well (96 well plate) were stimulated in vitro with different doses of rTcPA45 (ranging in FIG. 4b from 0.8 to 200 μg/ml final) for 24, 48 and 72 h, at 37° C., 5% CO2. Cultures were pulsed with ^3H-Thymidine (1 μCi/well) for 16-18 h before harvesting. ^3H-thymidine incorporation was obtained after counting using a beta-plate. Results present arithmetic means of c.p.m. (counts/minute) from 6 wells/dose of rTcPA45 or wells containing medium alone (+/−SD of the means).

Assay [2] addresses T1, rTcPA45 proline racemase (Trypanosoma cruzi, UniProt Q4DA80).
T1 construct: 6xHis (C); made in house; host or cells: E. coli (pET28b(+))
It counts as biochemical. To be noted: inhibitors 6 mM to 100 mM. As to the method: To investigate the genomic organization and transcription of the Tc45 gene, Southern and Northern blot analyses were done. FIG. 4 depicts the results of characterization of rTcPA45 activities. FIG. 4, part a, is an 8% SDS-PAGE gel of rTcPA45 (Coomasie blue staining). Part b depicts the proliferative activity of total splenocytes (5×10^4 cells/well) in the presence of increasing concentrations of rTcPA45 (μg/ml). […] Reaction conditions were: 0.2 M Na-acetate/25 mM β-mercaptoethanol buffer, pH6, rTcPA45 (3 μg/ml), 30 min incubation at 37° C. in 500 μl. The reaction was stopped by incubating for 10 min at 80° C. […] Reactions were carried out for 30 min at 37° C. and stopped for 5 min at 80° C. All reagents and inhibitors were purchased from Sigma. The shift in optical rotation was measured in a Polarimeter 241 MC (Perkin Elmer).
A suitable test for testing an active molecule inhibiting the polypeptide according to the invention is performed as follows: • The recombinant amino acid purified or native racemase is diluted in sodium acetate buffer or Tris or phophate on Hepes buffer at 3 micrograms per 500 microliters in the presence of 20 millmolar of beta mercepto ethanol and 10 to 80 millimolar of L or D substrate and containing various concentrations of active molecule to be tested. This reaction is incubated for 30 minutes at 37° C. and stopped by heating at 80° C. Variations in optical rotation are measured by a polarimeter.
3 μg of rTcPA45 was diluted in 500 μl of buffer (0.2M NaOAc, 20 mM β-mercaptoethanol, pH6.0) containing different concentrations of the substrate (10-80 mM or L- or D-proline). (See FIG. 4c.) The reaction was incubated for 30-60 minutes at 37° C. in a water bath, followed by heat inactivation of the enzyme for 10 minutes at 80° C. Each sample is diluted to 1.5 ml with water and the mixture submitted to measurement of optical rotation using a polarimeter, at 365 nm. A sample without enzyme is used as a control. […]
The percent of racemization of different concentrations of L-proline, D-proline, L-hydroxy-proline and D-hydroxy-proline substrates was calculated by incubating a 500-μl mixture of 3 μg TcPA45 and 10-80 mM substrate in 0.2 M sodium acetate and 25 mM β-mercaptoethanol, pH 6, for 30 min at 37° C. […] Water (1 ml) was then added, and the optical rotation was measured in polarimeter 241 MC (Perkin Elmer, Montignyle Bretonneux, France) at a wavelength of 365 nm, in a cell with a path length of 10 cm. […] The percent racemization of 80 mM L-proline as a function of pH was determined using 0.2 M sodium acetate, potassium phosphate and Tris-HCl buffers containing 25 mM β-mercaptoethanol; reactions were incubated for 30 min at 37° C. as described above. […]

“Also recorded” adds a separate entry of the source.

T1 sequence (Q4DA80 30-423): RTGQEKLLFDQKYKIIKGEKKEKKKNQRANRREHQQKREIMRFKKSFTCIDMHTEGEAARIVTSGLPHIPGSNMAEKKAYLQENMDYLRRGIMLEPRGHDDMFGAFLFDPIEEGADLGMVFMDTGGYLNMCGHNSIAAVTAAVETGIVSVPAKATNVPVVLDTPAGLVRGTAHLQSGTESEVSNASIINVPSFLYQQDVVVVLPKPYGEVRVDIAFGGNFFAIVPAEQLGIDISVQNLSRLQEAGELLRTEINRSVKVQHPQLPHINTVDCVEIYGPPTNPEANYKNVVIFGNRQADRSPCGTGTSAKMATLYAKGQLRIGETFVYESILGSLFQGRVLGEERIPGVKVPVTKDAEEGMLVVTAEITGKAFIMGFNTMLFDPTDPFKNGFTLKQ

As to `O=C(O)[C@H]1CCCN1` [D-proline], in assay [1], the “mitogenic activity of rTcPA45 in cultures supplemented with substrate” value was “affected considerably; also recorded: decrease” and the “cell proliferation with substrate alone” value is “no cell proliferation”.
Take `O=C(O)[C@@H]1CCCN1` [L-proline]: in assay [1], the “mitogenic activity of rTcPA45 in cultures supplemented with substrate” value was “affected considerably; also recorded: decrease” and the “cell proliferation with substrate alone” value is on record as “no cell proliferation”.
As to `NC(=O)CI` [iodoacetamide], in assay [1], the “mitogenic activity of rTcPA45 pre-incubated with inhibitor” value is recorded as “abolished”. The “inhibition of rTcPA45 enzymatic activity (racemization of 80 mM L-proline)” value (“inhibition of rTcPA45 enzymatic activity” below) in assay [2] is on record as “inhibited to different extents”.
For `O=C(O)CI` [iodoacetate], in that order: “abolished” and “inhibited to different extents”.
Turning to `O=C(O)/C=C\C(=O)O` [maleic acid], in assay [2], the “inhibition of rTcPA45 enzymatic activity” value is “inhibited to different extents”.
In the case of `O=C(O)c1ccc[nH]1` [pyrrole-2-carboxylic acid], the “mitogenic activity of rTcPA45 pre-incubated with inhibitor” value in assay [1] is “abolished”. The “inhibition of rTcPA45 enzymatic activity” value in assay [2] is reported as “inhibited to different extents”.
Regarding concanavalin A [ConA], the values for the 3H-thymidine uptake in assay [1] and in assay [1] (listed as concavalin A) were 32000 c.p.m and 32,000 c.p.m, respectively.
With lipopolysaccharide [LPS], the 3H-thymidine uptake is recorded as 3500 c.p.m in assay [1] and 3,500 c.p.m in assay [1] (listed as lipopolysaccharide).

The values are drawn from patent US8168770B2, “Cloning, sequencing and expression of a gene encoding an eukaryotic amino acid racemase, and diagnostic, therapeutic, and vaccination applications of parasite and viral mitogens” (priority 1999, dated 2012).
